The text below walks through data of ChEMBL document CHEMBL1149946, “The conformation of cyclosporin a bound to cyclophilin is altered (once again) following binding to calcineurin: an analysis of receptor-ligand-receptor interactions” (Bioorg Med Chem Lett, 1992).

A short description of this assay: Compound was evaluated for its binding affinity towards cyclophilin (Cyp).

Consider `C/C=C/CC(C)(C)[C@@H](O)[C@H]1C(=O)N[C@@H](CC)C(=O)N(C)CC(=O)N(C)[C@@H](CC(C)C)C(=O)N[C@@H](C(C)C)C(=O)N(C)[C@@H](CC(C)C)C(=O)N[C@@H](C)C(=O)N[C@@H](C)C(=O)N(C)[C@@H](CC(C)C)C(=O)N(C)[C@@H](CC(C)C)C(=O)N(C)[C@@H](C(C)C)C(=O)N1C`, for which the affinity, expressed as Kd, was 500 nM.
For `C/C=C/C[C@@H](C)[C@H](O)[C@H]1C(=O)N[C@@H](CC)C(=O)N(C)CC(=O)N(C)[C@@H](CC(C)C)C(=O)N[C@H](C(C)C)C(=O)N(C)CC(=O)N[C@@H](C)C(=O)N[C@H](C)C(=O)N(C)[C@H](CC(C)C)C(=O)N(C)[C@H](CC(C)C)C(=O)N(C)[C@H](C(C)C)C(=O)N1C`, binding was characterised by a dissociation constant (Kd) of 13 nM.
